Experimental data as given in PubChem BioAssay AID1963961 (Molecular Pharmacology Branch, DTP, NCI, 2024).

Tested on: K98450-129-R-PDC multicell spheroids, viability
Assay: Anticancer human tumor K98450-129-R-PDC patient-derived colon adenocarcinoma cell line growth inhibition [PI3K]
Conditions: for IC50: curve of first compound; for viability, T/C: stronger effect = lower value
Method in brief: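 Stroma-containing spheroids: tumor line, pooled-donor HUVEC, hMSC. Treatments: targeted agents with PI3K inhibitors. Dosing: clinically relevant, half-log spacing, 10 microM ceiling without known Cmax. Read-out: cell viability.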

[1] = second compound 0.0316 µM, first compound 0.0316 µM
[2] = second compound 0.0316 µM, first compound 0.1 µM
[3] = second compound 0.0316 µM, first compound 0.316 µM
[4] = second compound 0.0316 µM, first compound 1 µM
[5] = second compound 0.0316 µM, first compound 3.16 µM
[6] = second compound 0.0316 µM, first compound 10 µM
[7] = second compound 0.1 µM, first compound 0.0316 µM
[8] = second compound 0.1 µM, first compound 0.1 µM
[9] = second compound 0.1 µM, first compound 0.316 µM
[10] = second compound 0.1 µM, first compound 1 µM
[11] = second compound 0.1 µM, first compound 3.16 µM
[12] = second compound 0.1 µM, first compound 10 µM
[13] = second compound 0.316 µM, first compound 0.0316 µM
[14] = second compound 0.316 µM, first compound 0.1 µM
[15] = second compound 0.316 µM, first compound 0.316 µM
[16] = second compound 0.316 µM, first compound 1 µM
[17] = second compound 0.316 µM, first compound 3.16 µM
[18] = second compound 0.316 µM, first compound 10 µM
[19] = second compound 1 µM, first compound 0.0316 µM
[20] = second compound 1 µM, first compound 0.1 µM
[21] = second compound 1 µM, first compound 0.316 µM
[22] = second compound 1 µM, first compound 1 µM
[23] = second compound 1 µM, first compound 3.16 µM
[24] = second compound 1 µM, first compound 10 µM
[25] = second compound 3.16 µM, first compound 0.0316 µM
[26] = second compound 3.16 µM, first compound 0.1 µM
[27] = second compound 3.16 µM, first compound 0.316 µM
[28] = second compound 3.16 µM, first compound 1 µM
[29] = second compound 3.16 µM, first compound 3.16 µM
[30] = second compound 3.16 µM, first compound 10 µM
[31] = second compound 10 µM, first compound 0.0316 µM
[32] = second compound 10 µM, first compound 0.1 µM
[33] = second compound 10 µM, first compound 0.316 µM
[34] = second compound 10 µM, first compound 1 µM
[35] = second compound 10 µM, first compound 3.16 µM
[36] = second compound 10 µM, first compound 10 µM
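Also: spheroids exposed to agents for seven days before read-out.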

C=CC(=O)N1CCN(c2nc(=O)n(-c3c(C)ccnc3C(C)C)c3nc(-c4c(O)cccc4F)c(F)cc23)C(C)C1 (centres undefined) + CC(Nc1ncnc2nc[nH]c12)c1cc2cccc(Cl)c2c(=O)n1-c1ccccc1
IC50 (second compound 0.0316 µM): 5.34 µM
IC50 (second compound 0.1 µM): 3.4 µM
IC50 (second compound 0.316 µM): 5.92 µM
IC50 (second compound 1 µM): 3.54 µM
IC50 (second compound 3.16 µM): 1.84 µM
IC50 (second compound 10 µM): 2.02 µM
viability, T/C [1]: 94.3%
viability, T/C [2]: 96.5%
viability, T/C [3]: 79.7%
viability, T/C [4]: 74.1%
viability, T/C [5]: 53.3%
viability, T/C [6]: 44.4%
viability, T/C [7]: 106%
viability, T/C [8]: 99.7%
viability, T/C [9]: 89.2%
viability, T/C [10]: 67.9%
viability, T/C [11]: 52.4%
viability, T/C [12]: 36.5%
viability, T/C [13]: 111%
viability, T/C [14]: 105%
viability, T/C [15]: 92.1%
viability, T/C [16]: 68.5%
viability, T/C [17]: 54%
viability, T/C [18]: 46.9%
viability, T/C [19]: 113%
viability, T/C [20]: 104%
viability, T/C [21]: 89.4%
viability, T/C [22]: 73.9%
viability, T/C [23]: 46.9%
viability, T/C [24]: 42%
viability, T/C [25]: 93.5%
viability, T/C [26]: 98.1%
viability, T/C [27]: 96.9%
viability, T/C [28]: 60.5%
viability, T/C [29]: 44.5%
viability, T/C [30]: 36.6%
viability, T/C [31]: 81.2%
viability, T/C [32]: 78.4%
viability, T/C [33]: 84%
viability, T/C [34]: 67.1%
viability, T/C [35]: 39.4%
viability, T/C [36]: 32.8%

CC(Cn1ccc(-c2ccc(C#N)c(Cl)c2)n1)NC(=O)c1cc(C(C)O)[nH]n1 (centres undefined) + CC(Nc1ncnc2nc[nH]c12)c1cc2cccc(Cl)c2c(=O)n1-c1ccccc1
IC50 (second compound 0.0316 µM): > 10 µM
IC50 (second compound 0.1 µM): > 10 µM
IC50 (second compound 0.316 µM): > 10 µM
IC50 (second compound 1 µM): > 10 µM
IC50 (second compound 3.16 µM): > 10 µM
IC50 (second compound 10 µM): > 10 µM
viability, T/C [1]: 119%
viability, T/C [2]: 101%
viability, T/C [3]: 87.3%
viability, T/C [4]: 92.5%
viability, T/C [5]: 102%
viability, T/C [6]: 101%
viability, T/C [7]: 106%
viability, T/C [8]: 113%
viability, T/C [9]: 107%
viability, T/C [10]: 96.5%
viability, T/C [11]: 98.5%
viability, T/C [12]: 103%
viability, T/C [13]: 99.5%
viability, T/C [14]: 109%
viability, T/C [15]: 92.5%
viability, T/C [16]: 92.3%
viability, T/C [17]: 104%
viability, T/C [18]: 99%
viability, T/C [19]: 94.7%
viability, T/C [20]: 95.2%
viability, T/C [21]: 91.7%
viability, T/C [22]: 99.1%
viability, T/C [23]: 93.4%
viability, T/C [24]: 88%
viability, T/C [25]: 72.7%
viability, T/C [26]: 86.1%
viability, T/C [27]: 86.7%
viability, T/C [28]: 80.3%
viability, T/C [29]: 103%
viability, T/C [30]: 84%
viability, T/C [31]: 84.1%
viability, T/C [32]: 87.4%
viability, T/C [33]: 83%
viability, T/C [34]: 88.7%
viability, T/C [35]: 81.8%
viability, T/C [36]: 84.8%
